Laboratory results: paper PMC6297231 (Nature Communications, 2018)
Read-outs that look alike come from different tables or passages of the source. Where no end group is shown, it is not given here.

How the values were obtained:
MOLP8 = experiment: Caspase-3/7 activation assay; assay type: cell-based; details: Homo sapiens, MOLP-8
Protocol: (§1) Cells were plated at 3000 cells/well in 384-well white plates in corresponding cell growth media. […] Caspase-3/7 activation was subsequently determined using a Caspase-Glo 3/7 Reagent (Promega) and viability was assayed using the CellTiter-Glo Reagent (Promega) as described in manufacturer’s instructions. Dose–response curves for caspase-3/7 activation and viability were plotted and analyzed (including EC50 and GI50 determination) using GraphPad Prism.

MV411 = experiment: Caspase-3/7 activation assay; assay type: cell-based; details: Homo sapiens, MV4-11
Protocol: as §1

H23 = experiment: Caspase-3/7 activation assay; assay type: cell-based; details: Homo sapiens, NCI-H23
Protocol: as §1

Mcl-1 [1] = biological target: T1, Mcl-1 (Homo sapiens, UniProt Q07820); experiment: 2D protein-observed NMR titration (TROSY); assay type: binding; set-up: The 6His-TEV-Mcl-1(162–326) construct in a pET vector was expressed in BL21-GOLD cells; 6His-TEV (N, cleaved yes); made in house; host or cells: E. coli BL21-GOLD
Protocol: The 6His-TEV-Mcl-1(162–326) construct in a pET vector was expressed in BL21-GOLD cells and inducted by IPTG. ^15N-labeled GS-Mcl-1 was obtained by growing cells in Isogro-15N (Sigma-Aldrich) media (5 g L^-1) containing 50 µg mL^-1 Kanamycin and 12.5 µg mL^-1 Tetracycline. Expression was induced at OD^600 = 0.8 with 0.1 mM IPTG. Cells were then incubated overnight at 30 °C, harvested by centrifugation and lysed by sonication in buffer H (40 mM Hepes pH 8.0, 300 mM NaCl, 10 mM imidazole, 1 mM TCEP), supplemented with 0.3 mg mL^-1 lysozyme, 2.5 U mL^-1 benzonase, and EDTA-free protease inhibitors (Roche). The sample was centrifuged and supernatant collected and incubated with Ni-NTA resin (60 min at 4 °C). […]
NMR spectra were recorded at 298 K on a Bruker Avance 600 MHz spectrometer running Topspin 2.3 equipped with a 5 mm TCI Cryoprobe with Z-axis gradients. […] Binding was detected by ^1H–^15N 2D Transverse relaxation optimized spectroscopy (TROSY) spectra of the protein (F2 × F1) 2048 × 50 complex pairs (in Echo-Antiecho mode), 12019 × 1800 Hz sweep width, 85.2 ms × 27.8 ms acquisition times. Compound titration was recorded from fresh compound stock in DMSO-d6, and spectra were recorded at ligand concentrations of 0.04, 0.08, 0.16, 0.32, 0.63, and 1.24 mM. […]
Target sequence in this assay (Q07820 162-326): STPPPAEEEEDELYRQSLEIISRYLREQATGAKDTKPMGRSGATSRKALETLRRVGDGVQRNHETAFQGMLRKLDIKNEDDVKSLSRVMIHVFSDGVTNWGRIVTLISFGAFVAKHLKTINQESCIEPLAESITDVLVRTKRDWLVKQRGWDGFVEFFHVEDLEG

Mcl-1 [2] = biological target: T1, Mcl-1; experiment: TR-FRET binding assay; set-up: N-terminal GST-tagged-Mcl-1 protein from Mcl-1 (E171-G327); made in house; host or cells: E. coli
Protocol: Percent inhibition was calculated based upon min (control compound) vs. max (DMSO) according to Eq. (2) and the IC50 was derived the smart fit curve (Genedata screener) of % inhibition vs. concentration. Ki values were calculated from Eq.
Target sequence in this assay (Q07820 171-327): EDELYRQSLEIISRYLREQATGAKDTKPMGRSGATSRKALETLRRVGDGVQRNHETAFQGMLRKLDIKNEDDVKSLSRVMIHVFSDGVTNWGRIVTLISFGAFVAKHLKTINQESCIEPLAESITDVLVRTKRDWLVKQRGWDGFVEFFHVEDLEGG

Mcl-1 [3] = biological target: T1, Mcl-1; experiment: SPR direct binding assay; set-up: 6His-tagged Mcl-1 protein (E171-G327) was immobilized using NTA capture-coupling
Target sequence in this assay (Q07820 171-327): as above
Protocol: A Biacore T200 instrument (GE Healthcare) was used to monitor binding interactions using a direct binding assay format. 6His-tagged Mcl-1 protein (E171-G327) was immobilized using NTA capture-coupling at a flow rate of 10 μL min^-1 and using an immobilization running buffer containing 10 mM HEPES, 300 mM NaCl, 1 mM TCEP, and 0.05% Tween-20 at 25 °C. […] Approximately 300 response units of Mcl-1 protein (2 μg mL^-1 in immobilization running buffer) were immobilized using the ‘aim for’ function in the T200 Control Software (GE Healthcare). Remaining reactive esters were blocked using a 7 min injection of 1 M ethanolamine. Reference flow cells were prepared without protein. All binding measurements were performed in 10 mM Tris, pH 7.5, 300 mM NaCl, 1 mM TCEP, 1% DMSO, and 0.02% Tween-20 at 25 °C at a flow rate of 30 μL min^-1. Buffer was primed through the instrument overnight to stabilize the surface before subsequent assay steps. Prior to kinetic analysis, solvent calibration and double referencing subtractions were made to eliminate bulk refractive index changes, injection noise, and data drift. Affinity and binding kinetic parameters were determined by global fitting to a 1:1-binding model within the Biacore T200 Evaluation Software (GE Healthcare).

[4] = biological target: T2, N-Terminal 6His-tagged Bfl-1 protein from Bfl-1 (M1-K151) (UniProt Q16548 1-151); experiment: AlphaScreen or HTRF; TR-FRET: His-tagged protein with Eu-labeled anti-His antibody and HyLite Fluor 647-labeled peptide; 384-well plates, 24 °C, 120-180 min; how the peptide Kd was determined is not told; details: both partners purified
T2 construct: Bfl-1 (Bfl-1/A1), residues M1-K151; also called His-Bfl-1; source: E. coli, purified (Ni-NTA resin, size-exclusion chromatography); not shown: 6His, N-terminal, kept
T2 sequence (looked up): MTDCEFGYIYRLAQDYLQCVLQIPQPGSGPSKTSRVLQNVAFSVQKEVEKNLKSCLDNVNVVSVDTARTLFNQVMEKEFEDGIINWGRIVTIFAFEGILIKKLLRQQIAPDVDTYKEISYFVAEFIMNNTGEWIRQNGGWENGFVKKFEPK

[5] = biological target: T3, N-terminal GST-tagged-Mcl-1 protein from Mcl-1 (E171-G327) (human, UniProt Q07820 171-327); experiment: AlphaScreen or HTRF; TR-FRET: GST-tagged protein with Eu-labeled anti-GST antibody and HyLite Fluor 647-labeled peptide; 384-well plates, 24 °C, 120-180 min; how the peptide Kd was determined is not told; details: both partners purified
T3 construct: Mcl-1, residues E171-G327; also called GST-Mcl-1; not shown: GST, N-terminal, kept

[6] = biological target: T4, N-terminal GST-tagged Bcl-xL protein from Bcl-xL (1-209) (UniProt Q07817-1 1-209); experiment: as above; details: both partners purified
T4 construct: Bcl-xL, residues 1-209; also called GST-Bcl-xl; not shown: GST, N-terminal, kept
T4 sequence (Q07817 1-209): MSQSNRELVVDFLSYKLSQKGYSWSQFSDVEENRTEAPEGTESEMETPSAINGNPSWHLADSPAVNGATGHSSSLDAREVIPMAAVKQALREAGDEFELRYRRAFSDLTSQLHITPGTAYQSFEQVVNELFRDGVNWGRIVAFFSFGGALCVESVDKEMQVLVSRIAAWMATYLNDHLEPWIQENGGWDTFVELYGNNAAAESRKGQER

T3 sequence (Q07820 171-327): as the sequence (Q07820 171-327) above

Cc1nn(C)c(C)c1-c1cccc2c(CCCOc3cccc4ccccc34)c(C(=O)O)[nH]c12 [Compound 2, reference compound] was tested, and the EC50 (MOLP8; caspase activation, Mcl-1-dependent cell line, read-out: MOLP-8, EC50) was greater than 31500 nM, the EC50 (MOLP8; mean of log transformed data, read-out: MOLP-8 caspase pEC50 (converted)) was greater than 31600 nM and the EC50 (MV411; caspase activation, Mcl-1-dependent cell line, read-out: MV4-11, EC50) was greater than 31500 nM. For the same molecule, the EC50 (MV411; mean of log transformed data, read-out: MV4-11 caspase pEC50 (converted)) was greater than 31600 nM, the EC50 (H23; caspase activation, Mcl-1-dependent cell line, read-out: NCI-H23, EC50) was greater than 31500 nM and the EC50 (H23; mean of log transformed data, read-out: NCI-H23 caspase pEC50 (converted)) was greater than 31600 nM. For the same molecule, the Kd (Mcl-1 [1]; fast exchange shifts, second weaker binding event, read-out: Kd, binding event 2) was 141000 ± 8000 nM, the Kd (Mcl-1 [1]; slow exchange binding, read-out: Kd, binding event 1) was less than 5000 nM and the IC50 (Mcl-1 [2]; mean of log transformed data, read-out: MCL1 FRET pIC50 (converted)) was 288 nM. For the same molecule, the IC50 (Mcl-1 [2]; read-out: Mcl-1 FRET, IC50) was 290 nM, the Kd (Mcl-1 [3]; mean of log transformed data, read-out: MCL1 SPR pKd (converted)) was 646 nM and the Kd (Mcl-1 [3]; read-out: Mcl-1 SPR, Kd) was 650 nM.

B1: HyLite Fluor 647-labeled Bim peptide C (Hilyte647 C2 Maleimide)-WIAQELRRIGDEFN (peptide)
peptide: C(HiLyte Fluor 647 C2 maleimide)WIAQELRRIGDEFN
notes: added N-terminal cysteine that carries the dye; Bim BH3 stretch; also called Hylite Bim peptide
In the case of B1, the Kd [4] is reported as 10 nM and the Kd [5] is reported as 1.5 nM.

B2: HyLite Fluor 647-labeled BAK peptide C(Hilyte647 C2 Maleimide)-GGGQVGRQLAIIGDDINR (peptide)
peptide: C(HiLyte Fluor 647 C2 maleimide)GGGQVGRQLAIIGDDINR
notes: added N-terminal cysteine that carries the dye, and glycine spacer; Bak BH3 stretch; also called Hylite Bak peptide
B2 gave a Kd [6] of 10 nM.
